Experimental data taken from patent publication US5747482A, “Methods and compositions to inhibit keratinocyte proliferation” (priority 1996, dated 1998).
Where two headings read alike, the source gives them in different places.

Key:
[1] = tested on: Adult human keratinocytes; assay: Keratinocyte growth inhibition (crystal violet staining; confirmatory hexosaminidase activity), Example 2; type: cell-based
Text: Adult human keratinocytes from pooled donor skin were obtained from commercial sources (Cascade Biologics, Portland, Oreg., U.S.A.) and placed in 150 cm^2 bottom area culture flasks using culture medium 154 supplemented with HKGS (about 1%). At 80% confluency, cells were harvested with trypsin and cryopreserved until required. At the start of the experiments, the required number of vials of keratinocytes was thawed, and the keratinocytes were placed in culture in 24 well plates at about 2,500 cells/cm^2 using the same culture medium as described above. After 24 hours (to allow attachment), the medium was changed to fresh 154 supplemented with HKGS (about 1%) and gallium maltol. Specifically, the fresh medium was prepared by addition of a sufficient amount of a stock solution to provide for six different compositions having a final gallium concentration of 10^-4 M, 10^-5 M, 10^-6 M, 10^-8 M, 10^-10 M, and 10^-12 M. The stock solution was prepared by adding 22.25 mg of gallium maltol to 50 mL of 154 medium and then passing the solution through a 0.2 μm filter and storing at 4° C. Media were replaced every 2 or 3 days. […]

[2] = distilled deionized water
Text: Under some conditions, water may also be incorporated into the structure. […] The complex can be recrystallized from ethanol or other solvents to increase purity.

[3] = tested on: Keratinocytes; assay: Effect on cell differentiation and cell number, gallium maltol added 24 hours after seeding, Example 4; type: cell-based, human; details: 7 days, high calcium
Experimental: (§1) Adult human keratinocytes from pooled donor skin were obtained from commercial sources (Cascade Biologics, Portland, Oreg., U.S.A.) and placed in 150 cm^2 bottom area culture flasks using culture medium 154 supplemented with HKGS (about 1%). At 80% confluency, cells were harvested with trypsin and cryopreserved until required.
(§2) Culture flasks (75 cm^2 bottom area) were seeded with keratinocytes at about 2,500 cells per cm^2 as before. After 24 hours, the medium in three (3) flasks were changed to media (154) with the calcium content increased from the normal 0.2 mM to 1.0 mM ("high calcium") plus gallium maltol (GaM) at the following concentrations: 1×10^-5 M, 5×10^-5 M, and 1×10^-4 M. The culture was continued for 7 days when cells were about 75% confluent in the controls (no GaM). Media supplemented as above were changed every 2 days. Finally, media were aspirated and cells rinsed with PBS before exposure to trypsin (0.025%)/EDTA (0.01%). When dislodged, they were collected in centrifuge tubes and the flasks rinsed with PBS:trypsin neutralizing solution (Clonetics, San Diego, Calif., U.S.A.; 1:1 v/v) and added to the cell suspension. The total volume of suspensions was approximately 8 to 10 mL. Aliquots of these suspensions were counted on the hemocytometer in terms of:
(§3) (1) small, light or dark keratinocytes, referred to as "proliferating";
(§4) (2) larger, squamous keratinocytes, with intracellular structural elements; and
(§5) (3) clear squamous cells without structural elements.
After counting, each suspension was centrifuged, the supernatant discarded, and the cell pellet resuspended in 0.5 to 1.0 mL of 1% SDS:2.5 mM DTT. After 15 minutes at 37° C., aliquots of these suspensions were counted for insoluble cornified envelops. The volumes were noted.

[4] = tested on: Keratinocytes; assay: Effect on cell differentiation, keratinocytes grown 4 days before gallium maltol, Example 4; type: cell-based, human; details: for CELL NUMBER, clear squamous / CELL NUMBER, squamous / CELL NUMBER, proliferative: 3 days after 4 days growth; for CELL NUMBER, clear squamous: control 2.0 ± 0.03%; for CELL NUMBER, squamous: control 13.3 ± 2.6%; for CELL NUMBER, proliferative: control 83.6 ± 3.0%
Experimental: as §1, §2, §3, §4, §5
In a subsequent experiment, flasks of keratinocytes were grown in medium 154 for 4 days after seeding, before switching to the high calcium medium without gallium maltol (control) or with gallium maltol at final concentrations of 5×10^-5, 1×10^-5 or 1×10^-6 M. There were 2 or 3 flasks in each group. Culture was continued for another 3 days, when the keratinocytes were harvested and counted as before.

[5] = tested on: keratinocyte cells; type: cell-based, human; details: below 5×10^-4 M, 24 hours treatment
Text: as §1
The induction of apoptosis is a critical feature in the programmed cell death as it relates to disease conditions such as cancer, psoriasis, etc. where the uncontrolled proliferation of "immortal" cells such as keratinocytes is a causative feature of the disease. This example compares the ability of gallium maltol to induce apoptosis as compared to negative control (no gallium maltol), and positive control (CAM--an agent known to strongly induce apoptosis). The ability for gallium maltol to effect apoptosis was also measured by the inhibitory effect of ATA.
Specifically, keratinocyte cells were grown using medium 154 in 24 well plates seed with 2,500 cells/cm^2 as described above. Cultures were continued for 3 or 6 days when the cells had achieved about 20 or 60% confluence respectively. On these 2 occasions, media were aspirated from groups of 3 or 4 wells and replaced with high Ca^+2 medium either without supplement or with one of the following supplements:
1. Gallium maltol at a final concentration of one of the following: (a) 5×10^-4 M, (b) 1×10^-4 M, (c) 5×10^-5 M, (d) 1×10^-5 M, and (e) 1×10^-6 M;
4. As in (3) plus CAM at 1×10^-5 or 1×10^-6 M; and
5. As in (3) plus gallium maltol at 1×10^-4 or 2.5×10^-4 M;
Culture was renewed for a further 24 hours. At this time, media were removed and discarded, and the cells lysed with 200 μL/well of the solution provided in the Cell Death Detection Kit ELISA Plus (Boehringer Mannheim Biochemicals, Indianapolis, Ind., U.S.A., catalogue number 1774425). Aliquots of the lysate (20 μL) from each of 2 or 3 wells were assayed for nucleosomal enrichment following the kit instructions.

For `Cc1occc(=O)c1[O-].Cc1occc(=O)c1[O-].Cc1occc(=O)c1[O-].[Ga+3]` [gallium maltol, neutral 3:1 gallium complex of maltol], which “keratinocyte growth reduced as compared to control” value ([1]; 10^-4 M, FIG. 1 (crystal violet) and FIG. 2 (hexosaminidase), 100 µM) is on record?
The value was 60 to 90%.

And the “effect on keratinocyte growth at lower concentrations” value ([1]; concentrations below 10^-4 M, FIG. 2 (hexosaminidase))?
The value was “may, in fact, slightly promote keratinocyte growth”.

And the solubility [2]?
Its solubility is “about 24 millimolar”.

What about the anti-proliferative effect ([3]; 1×10^-4 M) of the same compound?
Its anti-proliferative effect is “so great that the number of cells was too small for accurate counting”.

And the “number of proliferative, squamous and cornified cells vs control” value ([3]; 1×10^-5 M)?
Its value is “for all intents and purposes, unchanged compared to control”.

And the “increase in the number of cornified envelopes vs control” value ([3]; 5×10^-5 M)?
The value was “tenfold”.

And the “decrease in total number of cells” value ([3]; 5×10^-5 M, vs control, 50 µM)?
Its value is “about 90%”.

And the “number of squamous cells vs control” value ([3]; 5×10^-5 M, FIG. 4)?
The value was “increase in the number of squamous cells”.

What about the “proportion of proliferative cells vs control” value ([3]; 5×10^-5 M, FIG. 4) of the same compound?
The value was “moderate decrease in the proportion of proliferative cells”.

And the “CELL NUMBER, cornified” value ([3]; 10^-5 M, control 0.26 ± 0.01%)?
The value was 0.39 ± 0.17%.

And the “CELL NUMBER, clear squamous” value ([3]; 10^-5 M, control 1.8 ± 0.9%)?
The value was 2.9 ± 0.15%.

And the “CELL NUMBER, squamous” value ([3]; 10^-5 M, control 12.7 ± 2.7%)?
Its value is 13.5 ± 0.65%.

And the “CELL NUMBER, proliferative” value ([3]; 10^-5 M, control 85.3 ± 2.7%)?
The value was 83.6 ± 0.64%.

What about the “concentration at which inhibition of keratinocyte proliferation is achieved” value [3] of the same compound?
Its value is “greater than 1×10^-5 M”.

And the “concentration enhancing cell differentiation of keratinocytes” value [3]?
The value was “greater than 1×10^-5 M”.

And the “CELL NUMBER, clear squamous” value ([4]; 1×10^-5 M)?
The value was 3.1 ± 0.06%.

And the “CELL NUMBER, squamous” value ([4]; 1×10^-5 M)?
Its value is 16.0 ± 3.1%.

And the “CELL NUMBER, proliferative” value ([4]; 1×10^-5 M)?
Its value is 80.8 ± 2.0%.

And the “differences in cell differentiation as determined by the proportion of cells” value ([4]; 5×10^-5 M, 1×10^-5 M (1×10^-6 M not counted), 4 days growth, then 3 days exposure)?
Its value is “no significant differences were observed in cell differentiation”.

What about the “CELL NUMBER, clear squamous” value ([4]; 5×10^-5 M) of the same compound?
Its value is 3.5 ± 0.06%.

What about the “CELL NUMBER, squamous” value ([4]; 5×10^-5 M) of the same compound?
Its value is 14.0 ± 1.1%.

What about the “CELL NUMBER, proliferative” value ([4]; 5×10^-5 M) of the same compound?
The value was 82.4 ± 0.91%.

What about the “increase in apoptosis at lower concentrations” value ([5]; cultured 3 days prior, FIG. 5) of the same compound?
Its value is “failed to provide such a significant increase in apoptosis”.

What about the “increase in apoptosis at lower concentrations” value ([5]; cultured 6 days prior, FIG. 6) of the same compound?
Its value is “smaller increases in apoptosis at lower concentrations”.
